Source: patent US20150212087A1, “Detection of the ERalpha/Src/PI3K Complex as Predictive Marker in Breast Cancer” (Centre Leon Berard, priority 2012, published 2015)

Tests used:
[1] = test system: ERα/PI3K interaction; assay: In situ Proximity Ligation Assay (PLA) detection of ERα/PI3K interaction in MCF-7 cells; assay type: cell-based, human; conditions: upon treatment
Text: (§1) Castoria et al. reported that estrogen rapidly triggers the interaction of ERα with Src and PI3K in MCF-7 cells, forming a complex involved in estrogen nongenomic-induced cell proliferation. […] Therefore the physiological relevance of this signaling pathway remains questionable. To date, immuno fluorescence analysis of the complex has been impeded by the fact that only a small population of ERα interacts with Src and PI3K. To circumvent this problem, we used a newly developed technique, the Proximity Ligation Assay. […] We investigated the ERα/PI3K interaction in the human breast tumor cell line MCF-7, using a rabbit anti-ERα together with a mouse anti-p85 antibody. The ERα/Src interaction was detected using the same anti-ERα together with a mouse anti-Src antibody. […] No dots were detected using only one antibody as confirmed by counting dots per 100 cells (FIG. 1, around 50 dots/cell versus less than 5). Importantly, the number of red dots increased after 5 min of estrogenic treatment then decreased after 15 min. This confirmed that upon estrogenic treatment, the formation of this complex is rapid and transitory (FIG. 2:)). […] They were detected exclusively in the […] of MCF-7 cells, as expected. […]

[2] = test system: ERα/Src interaction; assay: In situ Proximity Ligation Assay (PLA) detection of ERα/Src interaction in MCF-7 cells; assay type: cell-based, human; conditions: upon treatment
Text: as §1

Structure (SMILES) | ERα/PI3K interaction (red dots) by PLA [1] | ERα/Src interaction (red dots) by PLA [2]
Cc1ccc(-c2nn(C(C)(C)C)c3ncnc(N)c23)cc1 [PP1] | significant decrease of red dots | significant decrease of red dots
CC/C(=C(\c1ccccc1)c1ccc(OCCN(C)C)cc1)c1ccccc1 [tamoxifen] | decrease | decrease
